From patent US8859584B2, “TRPV1 antagonists” (AbbVie Inc., priority 2011, dated 2014) come the findings set out here.

Experiment [1] concerns the target T1, human TRPV1 (Homo sapiens, UniProt Q8NER1).
T1 construct: expressed in transfected cells
Briefly: Capsaicin Activation Assay (FLIPR intracellular Ca2+, recombinant HEK293 cells). The format is cell-based. As to conditions: recombinant HEK293 cells expressing hTRPV1; 50 nM capsaicin; read-out: human TRPV1 capsaicin IC50.

Experiment [2] has as its target T1, human TRPV1. The experiment can be described thus: Acid Activation Assay (pH 5.0, FLIPR intracellular Ca2+, recombinant HEK293 cells). The settings on record: percentage of maximal pH 5.0-induced response remaining; HEK293 hTRPV1; max concentration 37.5 μM. The format is cell-based. In outline:
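HEK293 cells stably expressing recombinant hTRPV1 were loaded with calcium dye for 90-120 min at 25° C and pre-treated with compound for 3 min before a pH 5.0 (DPBS/MES) challenge. Peak FLIPR fluorescence over baseline is given as percentage of the maximal pH 5.0-induced response.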

T1 sequence (Q8NER1 whole entry): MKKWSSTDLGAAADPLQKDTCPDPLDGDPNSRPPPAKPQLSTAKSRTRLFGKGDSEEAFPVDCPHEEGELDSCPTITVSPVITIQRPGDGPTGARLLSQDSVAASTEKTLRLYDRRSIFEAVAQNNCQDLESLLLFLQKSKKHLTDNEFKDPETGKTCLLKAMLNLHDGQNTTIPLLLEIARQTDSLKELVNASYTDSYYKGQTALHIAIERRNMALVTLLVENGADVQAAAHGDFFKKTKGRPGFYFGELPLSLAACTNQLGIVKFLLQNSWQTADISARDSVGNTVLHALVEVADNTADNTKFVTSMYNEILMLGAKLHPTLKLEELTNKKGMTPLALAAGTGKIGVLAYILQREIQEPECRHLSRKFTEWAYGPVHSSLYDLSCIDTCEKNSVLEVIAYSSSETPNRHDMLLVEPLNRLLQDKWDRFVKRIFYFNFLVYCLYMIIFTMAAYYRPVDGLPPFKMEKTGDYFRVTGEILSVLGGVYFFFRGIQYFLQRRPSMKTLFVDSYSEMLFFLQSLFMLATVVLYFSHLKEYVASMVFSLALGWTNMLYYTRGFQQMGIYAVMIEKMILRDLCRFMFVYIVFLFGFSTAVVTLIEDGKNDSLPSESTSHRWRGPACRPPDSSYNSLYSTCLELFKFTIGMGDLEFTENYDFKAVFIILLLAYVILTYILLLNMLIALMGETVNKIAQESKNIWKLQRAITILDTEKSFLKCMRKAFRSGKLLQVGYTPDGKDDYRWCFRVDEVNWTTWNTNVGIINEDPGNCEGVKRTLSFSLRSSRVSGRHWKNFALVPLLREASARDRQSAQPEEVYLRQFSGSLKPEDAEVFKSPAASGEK

A word on the IC50: it is the concentration that gives 50% inhibition. Consider `CC1(C)C[C@@H](NC(=O)Nc2ccc(F)c3c2C[C@@H](O)C3)c2ccc(Cl)cc2O1` [Example 167, 1-[(4R)-7-chloro-2,2-dimethyl-3,4-dihydro-2H-chromen-4-yl]-3-[(2R)-7-fluoro-2-hydroxy-2,3-dihydro-1H-inden-4-yl]urea], for which the IC50 in experiment [1] came out at 200 nM. The “human TRPV1 H+ (max % remain)” value in experiment [2] was found to be 51%.
In the case of `O=C(Nc1cccc2c1C[C@H](O)C2)N[C@H]1CCOc2cc(OC(F)(F)F)ccc21` [Example 93, 1-[(2R)-2-hydroxy-2,3-dihydro-1H-inden-4-yl]-3-[(4S)-7-(trifluoromethoxy)-3,4-dihydro-2H-chromen-4-yl]urea], the IC50 in experiment [1] came out at 41000 nM. Moreover, the “human TRPV1 H+ (max % remain)” value in experiment [2] came out at 57%.
The like results for `CCCC1(CCC)C[C@@H](NC(=O)Nc2cccc3c2C[C@H](O)C3)c2cc(F)ccc2O1` [Example 56, 1-[(4R)-6-fluoro-2,2-dipropyl-3,4-dihydro-2H-chromen-4-yl]-3-[(2R)-2-hydroxy-2,3-dihydro-1H-inden-4-yl]urea] were, in that order, 46 nM and 96%.
Turning to `O=C(NCC1COc2ccc(F)cc2C1)Nc1cccc2c1C[C@H](O)C2` (stereo partly drawn) [Example 28, 1-[(6-fluoro-3,4-dihydro-2H-chromen-3-yl)methyl]-3-[(2R)-2-hydroxy-2,3-dihydro-1H-inden-4-yl]urea], the IC50 in experiment [1] stood at 290 nM. The “human TRPV1 H+ (max % remain)” value in experiment [2] stood at 58%.
In the same order, the values of `O=C(Nc1cccc2c1C[C@H](O)C2)N[C@@H]1CCOc2c(OC(F)(F)F)cccc21` [Example 6, 1-[(2R)-2-hydroxy-2,3-dihydro-1H-inden-4-yl]-3-[(4R)-8-(trifluoromethoxy)-3,4-dihydro-2H-chromen-4-yl]urea] are 16 nM and 67%.
In the same order, the values of `O=C(Nc1cccc2c1C[C@H](O)C2)N[C@@H]1CCc2cc(Cl)ccc21` [Example 39, 1-[(1R)-5-chloro-2,3-dihydro-1H-inden-1-yl]-3-[(2R)-2-hydroxy-2,3-dihydro-1H-inden-4-yl]urea] are 25 nM and 46%.
In the same order, the values of `O=C(Nc1c(F)ccc2c1C[C@@H](O)C2)N[C@@H]1CC(CF)(CF)Oc2cc(C(F)(F)F)ccc21` [Example 95, 1-[(4R)-2,2-bis(fluoromethyl)-7-(trifluoromethyl)-3,4-dihydro-2H-chromen-4-yl]-3-[(2S)-5-fluoro-2-hydroxy-2,3-dihydro-1H-inden-4-yl]urea] are 170 nM and 46%.
Regarding `O=C(Nc1ccc(F)c2c1C[C@H](O)C2)N[C@@H]1CC(CF)(CF)Oc2ccc(F)cc21` [Example 141, 1-[(4R)-6-fluoro-2,2-bis(fluoromethyl)-3,4-dihydro-2H-chromen-4-yl]-3-[(2S)-7-fluoro-2-hydroxy-2,3-dihydro-1H-inden-4-yl]urea], in experiment [1], the IC50 was found to be 3900 nM. For the same compound, in experiment [2], the “human TRPV1 H+ (max % remain)” value was determined as 5%.
The like results for `O=C(Nc1cccc2c1C[C@H](O)C2)N[C@H]1COc2ccc(Cl)cc2C1` [Example 89, 1-[(3R)-6-chloro-3,4-dihydro-2H-chromen-3-yl]-3-[(2R)-2-hydroxy-2,3-dihydro-1H-inden-4-yl]urea] were, in that order, 560 nM and 91%.
For `CC1(C)C[C@@H](NC(=O)Nc2ccc(F)c3c2C[C@H](O)C3)c2cccc(OC(F)(F)F)c2O1` [Example 154, 1-[(4R)-2,2-dimethyl-8-(trifluoromethoxy)-3,4-dihydro-2H-chromen-4-yl]-3-[(2S)-7-fluoro-2-hydroxy-2,3-dihydro-1H-inden-4-yl]urea], the IC50 in experiment [1] was found to be 82 nM. The “human TRPV1 H+ (max % remain)” value in experiment [2] is 3%.
In the same order, the values of `CC1(C)C[C@@H](NC(=O)Nc2ccc(F)c3c2C[C@@H](O)C3)c2ccc(F)c(F)c2O1` [Example 171, 1-[(4R)-7,8-difluoro-2,2-dimethyl-3,4-dihydro-2H-chromen-4-yl]-3-[(2R)-7-fluoro-2-hydroxy-2,3-dihydro-1H-inden-4-yl]urea] are 400 nM and 47%.
In the same order, the values of `O=C(Nc1cccc2c1C[C@H](O)C2)N[C@@H]1CCOc2cc(F)ccc21` [Example 65, 1-[(4R)-7-fluoro-3,4-dihydro-2H-chromen-4-yl]-3-[(2R)-2-hydroxy-2,3-dihydro-1H-inden-4-yl]urea] are 270 nM and 73%.
The like results for `C[C@]1(C(F)F)C[C@@H](NC(=O)Nc2cccc3c2C[C@H](O)C3)c2ccc(Cl)cc2O1` [Example 33, 1-[(2R,4R)-7-chloro-2-(difluoromethyl)-2-methyl-3,4-dihydro-2H-chromen-4-yl]-3-[(2R)-2-hydroxy-2,3-dihydro-1H-inden-4-yl]urea] were, in that order, 27 nM and 51%.
As to `O=C(Nc1ccc(F)c2c1C[C@@H](O)C2)N[C@@H]1CC(CF)(CF)Oc2c(F)cc(F)cc21` [Example 162, 1-[(4R)-6,8-difluoro-2,2-bis(fluoromethyl)-3,4-dihydro-2H-chromen-4-yl]-3-[(2R)-7-fluoro-2-hydroxy-2,3-dihydro-1H-inden-4-yl]urea], the IC50 in experiment [1] amounted to 3400 nM. Further, in experiment [2], the “human TRPV1 H+ (max % remain)” value turned out to be 50%.
The like results for `CCC1(CC)C[C@@H](NC(=O)Nc2cccc3c2C[C@H](O)C3)c2ccc(OC(F)(F)F)cc2O1` [Example 60, 1-[(4R)-2,2-diethyl-7-(trifluoromethoxy)-3,4-dihydro-2H-chromen-4-yl]-3-[(2R)-2-hydroxy-2,3-dihydro-1H-inden-4-yl]urea] were, in that order, 52 nM and 23%.
In the same order, the values of `O=C(Nc1cccc2c1C[C@@H](O)C2)N[C@@H]1CC(CF)(CF)Oc2cc(Cl)ccc21` [Example 24, 1-[(4R)-7-chloro-2,2-bis(fluoromethyl)-3,4-dihydro-2H-chromen-4-yl]-3-[(2S)-2-hydroxy-2,3-dihydro-1H-inden-4-yl]urea] are 27 nM and 6%.
The like results for `C[C@@]1(C(F)F)C[C@@H](NC(=O)Nc2cccc3c2C[C@H](O)C3)c2ccc(Cl)cc2O1` [Example 20, 1-[(2S,4R)-7-chloro-2-(difluoromethyl)-2-methyl-3,4-dihydro-2H-chromen-4-yl]-3-[(2R)-2-hydroxy-2,3-dihydro-1H-inden-4-yl]urea] were, in that order, 36 nM and 64%.
`O=C(Nc1cccc2c1C[C@@H](O)C2)N[C@@H]1CC(CF)(CF)Oc2c(F)cccc21` [Example 87, 1-[(4R)-8-fluoro-2,2-bis(fluoromethyl)-3,4-dihydro-2H-chromen-4-yl]-3-[(2S)-2-hydroxy-2,3-dihydro-1H-inden-4-yl]urea]: the 50% inhibitory concentration (IC50) in experiment [1] worked out at 1200 nM. In addition, in experiment [2], the “human TRPV1 H+ (max % remain)” value is reported as 50%.
For `CC(C)(C)c1ccc(Nc2ncnc3cc(-c4ncccc4C(F)(F)F)ccc23)cc1` [B, reference compound], in experiment [1], the IC50 amounted to 55 nM. The “human TRPV1 H+ (max % remain)” value in experiment [2] is listed as 1%.
Consider `O=C(Nc1c(F)ccc2c1C[C@@H](O)C2)N[C@@H]1CC(CF)(CF)Oc2cc(Cl)ccc21` [Example 176, 1-[(4R)-7-chloro-2,2-bis(fluoromethyl)-3,4-dihydro-2H-chromen-4-yl]-3-[(2S)-5-fluoro-2-hydroxy-2,3-dihydro-1H-inden-4-yl]urea], for which, in experiment [1], the concentration for half-maximal inhibition (IC50) was 210 nM. For the same compound, the “human TRPV1 H+ (max % remain)” value in experiment [2] came out at 4%.
In the same order, the values of `O=C(Nc1cccc2c1C[C@H](O)C2)N[C@@H]1CC(CF)(CF)Oc2ccccc21` [Example 69, 1-[(4R)-2,2-bis(fluoromethyl)-3,4-dihydro-2H-chromen-4-yl]-3-[(2R)-2-hydroxy-2,3-dihydro-1H-inden-4-yl]urea] are 400 nM and 91%.
In the case of “1-[(4R)-2,2-dimethyl-8-(trifluoromethoxy)-3,4-dihydro-2H-chromen-4-yl]-3-[(2R)-7-fluoro-2-hydroxy-2,3-dihydro-1H-inden-4-yl]urea [Example 172]”, the IC50 in experiment [1] turned out to be 32 nM. The “human TRPV1 H+ (max % remain)” value in experiment [2] came to 47%.
Take `O=C(Nc1cccc2c1CC(O)C2)NC1CC(c2ccccc2Cl)Oc2ccccc21` (stereo not drawn) [Example 120, 1-[2-(2-chlorophenyl)-3,4-dihydro-2H-chromen-4-yl]-3-(2-hydroxy-2,3-dihydro-1H-inden-4-yl)urea]: the IC50 in experiment [1] turned out to be 1600 nM. The “human TRPV1 H+ (max % remain)” value in experiment [2] was 51%.
The like results for “1-[(2R)-7-fluoro-2-hydroxy-2,3-dihydro-1H-inden-4-yl]-3-[(4R)-8-(trifluoromethyl)-3,4-dihydro-2H-chromen-4-yl]urea [Example 173]” were, in that order, 210 nM and 39%.
The like results for `CC1(C)C[C@@H](NC(=O)Nc2cccc3c2C[C@@H](O)C3)c2ccc(Cl)c(F)c2O1` [Example 35, 1-[(4R)-7-chloro-8-fluoro-2,2-dimethyl-3,4-dihydro-2H-chromen-4-yl]-3-[(2S)-2-hydroxy-2,3-dihydro-1H-inden-4-yl]urea] were, in that order, 11 nM and 14%.
In the same order, the values of `O=C(Nc1cccc2c1C[C@H](O)C2)N[C@@H]1CC(CF)(CF)Oc2c1ccc(Cl)c2F` [Example 11, 1-[(4R)-7-chloro-8-fluoro-2,2-bis(fluoromethyl)-3,4-dihydro-2H-chromen-4-yl]-3-[(2R)-2-hydroxy-2,3-dihydro-1H-inden-4-yl]urea] are 56 nM and 64%.
On to `O=C(Nc1ccc(F)c2c1C[C@@H](O)C2)N[C@@H]1CC(CF)(CF)Oc2c(F)cccc21` [Example 170, 1-[(4R)-8-fluoro-2,2-bis(fluoromethyl)-3,4-dihydro-2H-chromen-4-yl]-3-[(2R)-7-fluoro-2-hydroxy-2,3-dihydro-1H-inden-4-yl]urea], for which the IC50 in experiment [1] stood at 3500 nM. The “human TRPV1 H+ (max % remain)” value in experiment [2] turned out to be 58%.
